# Reference: US11684598B2, “Use of cannabinoids in the treatment of epilepsy” (priority 2015, dated 2023)
# Legend:
# [1] = test system: PTZ-induced generalised seizures; test: Acute PTZ-induced model of generalised seizure; assay type: in vivo, rat
# Experimental: Adult male Wistar Kyoto rats were used in the acute PTZ model of seizure (>P24, 70-110 g). Animals were housed five per cage in a heat regulated room (21° C.) on a 12:12 h day/night cycle (lights on 0800) in 50% humidity and given ad libitum access to standard laboratory chow (PCD Mod C, Special Diet Services, Wiltham, UK) and water. All procedures were undertaken during white light hours.
# A PTZ (Sigma-Aldrich, Poole, UK) stock solution was made in 0.9% w/v NaCl for the experimental procedure.
# PTZ antagonises GABA inhibition via binding to the t-butyl-bicycl-phosphorothionate site of GABAA receptors. Moreover, this chemically-induced model can be indicative of effects against absence seizures. PTZ (90 mg/kg) was used to induce seizures in adult male Wistar rats (n=15 per group) with experiment dose randomised using a Latin square design. Animals were placed in their 6 L Perspex tanks and allowed to acclimatise to their environment for 10 min, before receiving one of the cannabinoid doses (see Table 5) in vehicle, or volume-matched dose of vehicle alone to serve as a negative control. 60 min after test compound or vehicle administration, animals were injected with PTZ (90 mg/kg, i.p.) to induce seizures and animal behaviour was recorded for 30 min.
# Videos of PTZ-induced seizures were scored offline with a standard seizure severity scale appropriate for generalised seizures (Table 6).
# Videos of seizure behaviour generated from the custom built observational system were scored offline according to seizure scales appropriate for PTZ model (Table 6) using Observer Video-Pro software (Noldus, Wageningen, The Netherlands). For the PTZ model of seizure, intra- and inter-observer agreements of behaviour scoring were assessed using the reliability analysis function of the observer Video-Pro software: 1 s tolerance window; Cohen's Kappa coefficient≥0.95.
# Specific markers of seizure behaviour and development were assessed and compared between vehicle control and drug groups. The latency (s) to seizure onset and the percentage of animals that developed tonic-clonic seizures was noted (see Table 6). In addition, the maximum seizure severity and the percentage mortality in each group were determined for the acute PTZ model of generalised seizure.
# The effect of drug on latency to seizure onset and maximum seizure severity were assessed using Krustal-Wallis with post-hoc Mann-Whitney U-tests. Drug effects on the percentage of animals that developed tonic-clonic seizures and percentage mortality were assessed using Chi-squared with post-hoc Fisher exact tests. In all cases, P≤0.05 was considered significant.
# [2] = test system: generalized epilepsy; conditions: eight adult patients with generalized epilepsy; cited from earlier work
# [3] = test system: D. discoideum cell growth; test: D. discoideum growth assay; assay type: cell-based, Dictyostelium discoideum
# Experimental: Wild type (A×2) D. discoideum cells were grown in shaking culture (in HL5 medium) for two days prior to growth assays. Cells (9900 in 495 μl of media) were added to each well of a 24 well plate and 5 μl of cannabinoid in DMSO (or DMSO only) was added to each well to achieve each described concentration (1% final DMSO concentration), and cells were maintained at 22° C. Cells were counted at 72 hours, and then every 24 hours. Quadruplicate repeats were used for each concentration.
# [4] = test system: seizures; conditions: mice, after pro-convulsant drugs or an electric current; cited from earlier work
# [5] = test system: D. discoideum development; test: D. discoideum development assay; assay type: cell-based, Dictyostelium discoideum; conditions: 20 μM, 24 h on nitrocellulose filter
# Experimental: Wild type (A×2) D. discoideum cells were grown in HL5 shaking culture for two days prior to development assay. Cells were washed in phosphate buffer (KK2; 20 mM Potassium phosphate buffer, pH 6.1), and 1×10^7 cells were spread onto nitrocellulose filters (Millipore, Cork). Absorbent pads (Millipore, Cork), divided into quarters, were placed in 2 ml culture dishes and soaked with 0.5 ml KK2 containing the cannabinoids at 20 μM. 1 mM Valproic acid was used as a positive control while KK2 containing 1% DMSO was used as a solvent only control. Nitrocellulose filters containing cells were quartered and place upon absorbent pads and maintained in a humid environment at 22° C. for 24 h. Fruiting body morphology was recorded using a dissection microscope and camera.
# [6] = test system: D. discoideum growth upon R. planticola bacterial plates; test: Bacterial plate screen; assay type: cell-based, Dictyostelium discoideum; conditions: CBDA 12.3 μM, CBD 16.7 μM; 4 days
# Experimental: Heat killed (75° C. for 30 minutes) R. planticola was spread onto the plates and ˜50 wild-type A×2 cells were added and left to grow at 22° C. Plates were checked regularly for colonies.
smiles,measurement,setting,value
"C=C(C)[C@@H]1CCC(C)=C[C@H]1c1c(O)cc(CCCCC)cc1O [CBD, Cannabidiol]",effect on percentage mortality,"[1]; 100 mg/kg CBD (P≤0.01), 100 mg/kg CBDA (P=0.0656), CBD/CBDA ratio (P=0.0656)",significantly reduced
same,effect on latency to seizure onset,"[1]; 100 mg/kg CBD (P≤0.05), CBD/CBDA 9:1 (P≤0.05), CBDA 100 mg/kg (P=0.0929)",significantly increasing latency to onset
same,median score for the maximum seizure severity,"[1]; 100 mg/kg, PTZ 90 mg/kg i.p. 60 min after compound, scale of Table 6, n=15",5
same,reduction of seizures,[2],marked reduction of seizures in 4 of the patients
same,IC50,"[3]; Dictyostelium discoideum, secondary plot of cell density at 144 hours, read-out: growth inhibitory constant (IC50)",1630 nM
same,concentration blocking growth,[3]; growth over one week,20 µM
same,concentration significantly inhibiting cell growth (P<0.05),[3]; growth over one week,0.5 µM
same,prevention of seizures,[4],able to prevent seizures in mice
same,effect on development (fruiting body morphology),[5],able to aggregate and develop to form mature fruiting bodies
same,cell survival (colony number) compared to control (solvent only),[6],No difference in colony number
